From US10835470B2, “Cosmetics composition containing ginsenoside as active ingredient” (AMOREPACIFIC CORPORATION, priority 2015, dated 2020)

Experiments:
[1] = tested on: tyrosinase enzyme extracted from mushrooms; test: Tyrosinase inhibitory effect, absorbance at 475 nm; assay type: biochemical; conditions: mushroom tyrosinase, tyrosine substrate, 37° C., concentration of test substance not given
Description: The tyrosinase enzyme was extracted from mushrooms and obtained from Sigma (SIGMA). First, tyrosine as a substrate was dissolved in distilled water to prepare 0.3 mg/ml of a solution. The solution was placed by 1.0 ml in a test tube, and then 1.0 ml of potassium phosphate buffer solution (concentration 0.1 mol, PH 6.8) and 0.7 ml of distilled water were added to prepare a reaction solution.
0.2 ml of the test substance was placed in the reaction solution, and then the mixture was allowed to react in a thermostatic chamber at 37° C. for 10 minutes. At this time, as a negative control group (no addition), that obtained by adding 0.2 ml of only solvent in place of each test substance was prepared. As a positive control group, ascorbic acid was used. 2500 unit/ml of tyrosinase solution was added by 0.1 ml to the reaction solution, and the mixture was reacted again in a thermostatic chamber at 37° C. for 10 minutes. The test tube containing this reaction solution was placed in ice water and quenched to stop the reaction. Absorbance at a wavelength of 475 nm was measured with a photoelectron spectrometer. Each tyrosinase inhibitory effect was calculated by Mathematical Equation 1 below. The tests were conducted on ginsenoside Rd and compound O, respectively. Tyrosinase inhibition rate (%)=100−[{(Reaction absorbance of test substance)/(Reaction absorbance of negative control group)}×100] […]

[2] = tested on: keratinocytes (cell line: HaCaT); test: Inhibition of UVB-induced reactive oxygen species (ROS) generation, DCF-DA fluorescence; assay type: cell-based
Description: 5×10^4 keratinocytes (cell line: HaCaT; obtained from: ATCC) was placed in each well of a 24-well plate and allowed to adhere for 24 hours. After 16 hours, ginsenoside Rd was treated with 1%. […] After 2 hours, the culture solution was removed, and 100 μl of phosphate buffer saline (PBS) was added to each well. The keratinocytes were irradiated with ultraviolet rays of 30 mJ/cm^2 using an ultraviolet B (UVB) lamp (Model: […], UV B 15 W, Sankyo Denki, Japan), and then PBS was taken out and 200 μl of keratinocyte culture solution was added to each well. Herein, ginsenoside Rd was again treated and the amount of reactive oxygen species increased by ultraviolet stimulation was determined for each fixed period of time. The amount of ROS was determined by referring to Tan's method for measuring the fluorescence of DCF-DA (dichlorofluorescin diacetate) oxidized by ROS (Tan et al., 1998, J. Cell Biol. Vol. 141, pp 1423-1432). The ginsenoside Rd was replaced with Compound O, and the test was carried out in the same process.

B16/F10 melanoma cells = test: Inhibition of melanin production in B16/F10 melanoma cells; assay type: cell-based, mouse; conditions: 72 hours, concentration not given
From the text: The B16/F10 melanoma used in this test example is a cell line derived from a mouse and is a cancer cell caused by malignant alteration of a cell secreting a black pigment called melanin. The extent to which and melanin production was decreased by treating the test substance during artificial cultivation of this cell was compared and evaluated. The B16/F10 melanoma used in this test example was purchased from the Korean Cell Line Bank (KCLB No: 8008) and used. Measurement of melanin biosynthesis inhibitory effect of B16/F10 melanoma was carried out as follows. B16/F10 melanoma was dispensed in a 6-well plate (5×10^5/well) and cultured in DMEM (Dulbecco's Modified Eagle's Medium) containing 10% FBS (fetal bovine serum) for about 24 hours at 37° C. in a 5% CO2 incubator (MCO-20 AIC, Sanyo). The test substance was added to a new DMEM medium not containing FBS and allowed to stand for 72 hours. […] Absorbance was measured at 405 nm using an ELISA reader (DIbiotech, Korea). […] In comparison with the melanin content in the control group, the degree of inhibition of melanin production of each test substance was measured. […] Melanin production inhibition rate was calculated according to Mathematical Equation 2 below, and the results are shown in Table 4. Melanin production inhibition rate (%)=100−[{(Absorbance of test substance)/(Absorbance of control group)}×100] […]

Aspergillus niger = test: Antibacterial activity, MIC by two-fold dilution; assay type: cell-based; conditions: 25° C., 48 hours
Description: (§1) Antibacterial experiments were conducted to evaluate the antibacterial activity of ginsenoside Rd and Compound O. Specific experimental methods are as follows. The strains of Staphylococcus aureus, Escherichia coli and Pseudomonas aeruginosa used in the experiment were cultured in Trypticase Soy Broth, and the strains of Candida albicans, Aspergillus niger were cultured in Sabouraud Dextrose Broth medium. A diluted solution in which the culture solution is diluted 1/100 (Candida albicans strain 1/10) in each culture medium was used as a test strain solution. A spore suspension of Aspergillus niger (2×10^8 cfu/ml) was used as a test strain solution. A solution prepared by adding 0.15 ml of the test strain solution to 15 ml of each medium and thoroughly mixing the same was used as a diluted solution. 96 Deep well plate was placed by 16 μl ginsenoside Rd 10 ppm to 1 row and placed by 184 μl a diluted solution. The diluted solution was placed by 100 μl in the rest of the wells. The mixed solution of 1 row was thoroughly mixed and 100 μl was taken and placed in 2 row and thoroughly mixed. 100 μl was taken again and placed in 3 row. A two-fold dilution was carried out in this manner. Staphylococcus aureus, Escherichia coli and Pseudomonas aeruginosa were cultured in a thermostatic chamber at 32° C., and Candida albicans and Aspergillus niger were cultured in a thermostatic chamber at 25° C. After 48 hours, the growth of strains was checked by the degree of suspension and microscope, and the Minimum Inhibitory Concentration (MIC) value was determined. The ginsenoside Rd was replaced with Compound O, and the test was carried out in the same process.

Candida albicans = test: Antibacterial activity, MIC by two-fold dilution; assay type: cell-based; conditions: 25° C., 48 hours
Description: as §1

Escherichia coli = test: Antibacterial activity, MIC by two-fold dilution; assay type: cell-based; conditions: 32° C., 48 hours
Description: as §1

Pseudomonas aeruginosa = test: Antibacterial activity, MIC by two-fold dilution; assay type: cell-based; conditions: 32° C., 48 hours
Description: as §1

Staphylococcus aureus = test: Antibacterial activity, MIC by two-fold dilution; assay type: cell-based; conditions: 32° C., 48 hours
Description: as §1

With `O=C1O[C@H]([C@@H](O)CO)C(O)=C1O` [Ascorbic acid, reference compound] the “Tyrosinase inhibition rate (%)” value [1] was 56%.

In the case of `CC(C)=CCC[C@](C)(O[C@@H]1O[C@H](CO)[C@@H](O)[C@H](O)[C@H]1O)[C@H]1CC[C@]2(C)[C@@H]1[C@H](O)C[C@@H]1[C@@]3(C)CC[C@H](O[C@@H]4O[C@H](CO)[C@@H](O)[C@H](O)[C@H]4O[C@@H]4O[C@H](CO)[C@@H](O)[C@H](O)[C@H]4O)C(C)(C)[C@@H]3CC[C@]12C` [Ginsenoside Rd], the “Amount of ROS, ratio to vehicle control” value ([2]; 0 hr after irradiation of UVB 30 mJ/cm^2, test substance treated with 1%) is reported as 100, the “Amount of ROS, ratio to vehicle control” value ([2]; 2 hr after irradiation of UVB 30 mJ/cm^2, test substance treated with 1%) is reported as 251 and the “Amount of ROS, ratio to vehicle control” value ([2]; 3 hr after irradiation of UVB 30 mJ/cm^2, test substance treated with 1%) is reported as 286. For the same molecule, the “Tyrosinase inhibition rate (%)” value [1] was 68%, the “Melanin production inhibition rate (%)” value (B16/F10 melanoma cells) was 67% and the “Minimum Inhibitory Concentration (MIC)” value (Aspergillus niger) was over 3%. The “Minimum Inhibitory Concentration (MIC)” value (Candida albicans) was over 4%, the “Minimum Inhibitory Concentration (MIC)” value (Escherichia coli) was 0.191% and the “Minimum Inhibitory Concentration (MIC)” value (Pseudomonas aeruginosa) was 0.25%. The “Minimum Inhibitory Concentration (MIC)” value (Staphylococcus aureus) was 0.07%.

With `O=c1cc(CO)occ1O` [Kojic acid, reference compound] the “Melanin production inhibition rate (%)” value (B16/F10 melanoma cells) was 49%.
